How the values were obtained:
Assay type in all cases: in vivo
[1] = tested on: Echinochloa crus-galli (ECHCG); assay: Herbicidal pre-emergence action, section A (Table A3); details: application rate 320 g/ha; visual grading after ca. 3 weeks vs untreated controls
Text: (§1) Seeds of mono- and dicotyledonous weed plants were sown in plastic pots (double sowings with one species of mono- and one species of dicotyledonous weed plants per pot), in sandy loam, and covered with soil. The compounds according to the invention, formulated in the form of wettable powders (WP) or as emulsifiable concentrates (EC), were applied to the surface of the covering soil as aqueous suspension or emulsion, with the addition of 0.5% of an additive, at an application rate of 600 l of water per hectare (converted). Following treatment, the pots were placed in a greenhouse and kept under optimum growth conditions for the test plants. The visual grading of the damage to the test plants was carried out after ca. 3 weeks in comparison to untreated controls (herbicidal effect in percent (%): 100% effect=plants have died off, 0% effect=as control plants).

Kochia scoparia (KCHSC) [2] = assay: Herbicidal pre-emergence action, section A (Table A4); details: application rate 1280 g/ha; visual grading after ca. 3 weeks vs untreated controls
Text: as §1

Lolium rigidum (LOLRI) = assay: Herbicidal pre-emergence action, section A (Table A5); details: application rate 1280 g/ha; visual grading after ca. 3 weeks vs untreated controls
Text: as §1

[3] = tested on: Matricaria inodora (MATIN); assay: Herbicidal pre-emergence action, section A (Table A6); details: application rate 1280 g/ha; visual grading after ca. 3 weeks vs untreated controls
Text: as §1

Poa annua (POAAN) [4] = assay: Herbicidal pre-emergence action, section A (Table A7); details: application rate 1280 g/ha; visual grading after ca. 3 weeks vs untreated controls
Text: as §1

Setaria viridis (SETVI) = assay: Herbicidal pre-emergence action, section A (Table A8)
Text: as §1

Stellaria media (STEME) [5] = assay: Herbicidal pre-emergence action, section A (Table A9); details: application rate 1280 g/ha
Text: as §1

[6] = tested on: Amaranthus retroflexus (AMARE); assay: Herbicidal pre-emergence action, section A (Table A11); details: application rate 320 g/ha
Text: as §1

[7] = tested on: Digitaria sanguinalis (DIGSA); assay: Herbicidal pre-emergence action, section A (Table A12); details: application rate 1280 g/ha
Text: as §1

[8] = tested on: Abutilon theophrasti (ABUTH); assay: Herbicidal post-emergence action, section B (Table B1); details: application rate 1280 g/ha, rated visually after about 3 weeks
Procedure: (§2) Seeds of mono- and dicotyledonous weed plants were placed in plastic pots in sandy loam soil (doubly sown with in each case one species of mono- or dicotyledonous weed plants per pot), covered with soil and cultivated in a greenhouse under controlled growth conditions. 2 to 3 weeks after sowing, the test plants were treated at the one-leaf stage. The compounds of the invention, formulated in the form of wettable powders (WP) or as emulsion concentrates (EC), were applied onto the green parts of the plants as aqueous suspension or emulsion with addition of 0.5% additive at a water application rate of 600 liters per hectare (converted). After the test plants had been kept in the greenhouse under optimum growth conditions for about 3 weeks, the activity of the preparations was rated visually in comparison to untreated controls. For example, 100% activity=the plants have died, 0% activity=like control plants.

Kochia scoparia (KCHSC) [9] = assay: Herbicidal post-emergence action, section B (Table B4); details: application rate 1280 g/ha; visual rating about 3 weeks after treatment vs untreated controls
Procedure: as §2

Stellaria media (STEME) [10] = assay: Herbicidal post-emergence action, section B (Table B9); details: application rate 1280 g/ha; visual rating about 3 weeks after treatment vs untreated controls
Procedure: as §2

[11] = tested on: Amaranthus retroflexus (AMARE); assay: Herbicidal post-emergence action, section B (Table B11); details: application rate 1280 g/ha; visual rating about 3 weeks after treatment vs untreated controls
Procedure: as §2

[12] = tested on: Echinochloa crus-galli (ECHCG); assay: Herbicidal post-emergence action, section B (Table B3); details: application rate 1280 g/ha, rated visually after about 3 weeks
Procedure: as §2

Poa annua (POAAN) [13] = assay: Herbicidal post-emergence action, section B (Table B7); details: application rate 1280 g/ha; visual rating about 3 weeks after treatment vs untreated controls
Procedure: as §2

Veronica persica (VERPE) = assay: Herbicidal post-emergence action, section B (Table B10); details: application rate 320 g/ha; visual rating about 3 weeks after treatment vs untreated controls
Procedure: as §2

Compound | pre-emergence activity against ECHCG in % [1] | pre-emergence activity against KCHSC in % (Kochia scoparia (KCHSC) [2]) | pre-emergence activity against LOLRI in % (Lolium rigidum (LOLRI)) | pre-emergence activity against MATIN in % [3] | pre-emergence activity against POAAN in % (Poa annua (POAAN) [4]) | pre-emergence activity against SETVI in % (Setaria viridis (SETVI); application rate 320 g/ha) | pre-emergence activity against STEME in % (Stellaria media (STEME) [5]) | pre-emergence activity against AMARE in % [6] | pre-emergence activity against DIGSA in % [7] | post-emergence activity against ABUTH in % [8] | post-emergence activity against KCHSC in % (Kochia scoparia (KCHSC) [9]) | post-emergence activity against STEME in % (Stellaria media (STEME) [10]) | post-emergence activity against AMARE in % [11] | pre-emergence activity against SETVI in % (Setaria viridis (SETVI); application rate 1280 g/ha) | post-emergence activity against ECHCG in % [12] | post-emergence activity against POAAN in % (Poa annua (POAAN) [13]) | post-emergence activity against VERPE in % (Veronica persica (VERPE))
Cc1cccc(F)c1-c1nc2c(cc1Br)SCN2 [Example I-032] | 100% | 90% | 100% | 90% | 100% | 100% | 100% | 90% | 100% | 90% | 90% | 90% | 90% |  |  |  | 
COC(=O)CCC(=O)N1CSc2cc(Br)c(-c3ccc(F)cc3F)nc21 [Example I-085] |  |  |  |  | 100% |  |  |  |  | 90% |  | 90% | 90% | 100% | 90% | 90% | 100%

Source: patent US20240381872A1, “SUBSTITUTED 2,3-DIHYDRO[1,3]THIAZOLO[4,5-B]PYRIDINES, SALTS THEREOF AND THEIR USE AS HERBICIDALLY ACTIVE SUBSTANCES” (BAYER AKTIENGESELLSCHAFT, priority 2021, published 2024)
